Several values for one entry are separate records, joined by “and”; a condition that tells them apart may be missing. Equal entries are not always repeated.
Tested on: 616215-338-R-J1-PDC spheroids with HUVEC/MSC, viability
Assay: Anticancer human tumor 616215-338-R-J1-PDC patient-derived colon adenocarcinoma cell line growth inhibition [PI3K]
Conditions: for viability, T/C: stronger effect = lower value
Description: Combinatorial screen of targeted agents with the PI3K inhibitors inavolisib, alpelisib, duvelisib, and copanlisib in multi-cell type tumor spheroids
A high-throughput screen of multi-cell type tumor spheroids was designed to identify active combinations of targeted small molecules and PI3K pathway inhibitors. Complex spheroids include a stromal component modeled by human endothelial cells (HUVEC) and fibroblasts modeled by human mesenchymal stem cells (MSCs). The concentration ranges selected for each drug and investigational agent were based upon clinically achievable concentrations if the clinical Cmax of the agent was known.
Compounds. The drugs and investigational agents: inavolisib (NSC800729), alpelisib (NSC765974), duvelisib (NSC772469), copanlisib (NSC816437), ipatasertib (NSC767898), afuresertib (NSC778305), talazoparib (NSC767125), sapanisertib (NSC764658), selumetinib (NSC741078), tovorafenib (DAY101, NSC766906), vemurafenib (NSC761431), ravoxertinib (NSC781343), sotorasib (NSC818433), MRTX1133 (NSC 836407), abemaciclib (NSC 768073), palbociclib (NSC758247), venetoclax (NSC 766270), SY5609 (NSC837396), enzalutamide (NSC755605), and darolutamide (NSC825331), were obtained from the National Cancer Institute (NCI) Developmental Therapeutics Program Chemical Repository. The FDA-approved anticancer drug set is available from the NCI Developmental Therapeutics Program. […] The stock solutions were prepared in dimethyl sulfoxide (DMSO, Sigma-Aldrich, St. Louis, MO, cat. D2650) at 800-fold the tested concentration and stored at -70 degrees C prior to their use. All drugs and investigational agents were tested over a range starting from a high concentration at or near the clinical Cmax and decreasing in half-log increments. If the clinical Cmax for an agent had not been determined, the highest concentration tested was 10 microM.
Cell Culture. All cells were maintained in an incubator at 37 degrees C and 5% CO2 with 95% humidity. The PDC lines were cultured according to standard operating procedures established by the NCI PDMR (https://pdmr.cancer.gov/sops/default.htm). All PDCs were thawed and cultured in Matrigel-coated flasks prepared with a working solution of 1X Ham's F-12 nutrient mix, without supplementation (Invitrogen, Waltham, MA, cat. 11765054), 100 U/mL penicillin-streptomycin (Invitrogen, cat. 15140122), and 2.5% Matrigel (Corning Inc., Corning, NY, cat. 354248) for the first three passages. The 354836-022-R-J1-PDC, 475296-252-R-J1-PDC, and 997726-040-R-J2-PDC lines were cultured in 6A media, which includes advanced DMEM/F-12 (Thermo Fisher Scientific, cat. 12634028), 10 mM HEPES (Thermo Fisher Scientific, cat. 15630080), 1X GlutaMAX supplement (Thermo Fisher Scientific, cat. 35050061), 0.1 mg/mL primocin (InvivoGen, San Diego, CA, cat. ant-pm-2), 10% defined fetal bovine serum, heat inactivated (HyClone Laboratories Inc., Logan, UT, cat. SH30070.03HI), 50% L-WRN conditioned media (ATCC, cat. CRL-3276), 1.25 mM N-Acetyl-L-cysteine (Sigma-Aldrich, cat. A9165), 10 mM nicotinamide (Sigma-Aldrich, cat. N0636), 1X B-27 supplement (Thermo Fisher Scientific, cat. 17504044), 1X N-2 supplement (Thermo Fisher Scientific, cat. 17502048), and 10 microM Y-27632 dihydrochloride (Tocris Bioscience, Bristol, United Kingdom, cat. 1254). The 624824-186-R-J2-PDC line was cultured in 6C/Colon 1B media, which includes all 6A media components plus 50 ng/mL human EGF recombinant protein (Thermo Fisher Scientific, cat. PHG0311). […]
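Also: spheroids exposed to agents for seven days before the viability read.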

Q: What does the source list for `CC(Nc1ccc2c(c1)OCCn1cc(N3C(=O)OCC3C(F)F)nc1-2)C(N)=O` (stereo unspecified)?
A: viability, T/C (compound 0.00316 µM): 94.5% [middle of 8 runs]; viability, T/C (compound 0.01 µM): 96.4% [middle of 8 runs]; viability, T/C (compound 0.0316 µM): 100% [middle of 8 runs]; viability, T/C (compound 0.1 µM): 97.1% [middle of 8 runs]; viability, T/C (compound 0.316 µM): 98.8% [middle of 8 runs]; viability, T/C (compound 1 µM): 105% [middle of 8 runs]; IC50 (compound alone, run of 05/08/2023): > 1 µM

Q: What does the source list for `C=CC(=O)N1CCN(c2nc(=O)n(-c3c(C)ccnc3C(C)C)c3nc(-c4c(O)cccc4F)c(F)cc23)C(C)C1` (stereo unspecified) + CC(Nc1ccc2c(c1)OCCn1cc(N3C(=O)OCC3C(F)F)nc1-2)C(N)=O?
A: IC50 (curve of first compound, second compound 0.00316 µM): > 10 µM; IC50 (curve of first compound, second compound 0.01 µM): > 10 µM; IC50 (curve of first compound, second compound 0.0316 µM): > 10 µM; IC50 (curve of first compound, second compound 0.1 µM): > 10 µM; IC50 (curve of first compound, second compound 0.316 µM): > 10 µM; IC50 (curve of first compound, second compound 1 µM): > 10 µM; viability, T/C (second compound 0.00316 µM, first compound 0.0316 µM): 95.9%; viability, T/C (second compound 0.00316 µM, first compound 0.1 µM): 101%; viability, T/C (second compound 0.00316 µM, first compound 0.316 µM): 86.8%; viability, T/C (second compound 0.00316 µM, first compound 1 µM): 103%; viability, T/C (second compound 0.00316 µM, first compound 3.16 µM): 100%; viability, T/C (second compound 0.00316 µM, first compound 10 µM): 87.5%; viability, T/C (second compound 0.01 µM, first compound 0.0316 µM): 91.8%; viability, T/C (second compound 0.01 µM, first compound 0.1 µM): 100%; viability, T/C (second compound 0.01 µM, first compound 0.316 µM): 84.2%; viability, T/C (second compound 0.01 µM, first compound 1 µM): 98.1%; viability, T/C (second compound 0.01 µM, first compound 3.16 µM): 99.1%; viability, T/C (second compound 0.01 µM, first compound 10 µM): 95.6%; viability, T/C (second compound 0.0316 µM, first compound 0.0316 µM): 102%; viability, T/C (second compound 0.0316 µM, first compound 0.1 µM): 106%; viability, T/C (second compound 0.0316 µM, first compound 0.316 µM): 110%; viability, T/C (second compound 0.0316 µM, first compound 1 µM): 103%; viability, T/C (second compound 0.0316 µM, first compound 3.16 µM): 95.6%; viability, T/C (second compound 0.0316 µM, first compound 10 µM): 90.9%; viability, T/C (second compound 0.1 µM, first compound 0.0316 µM): 89.8%; viability, T/C (second compound 0.1 µM, first compound 0.1 µM): 92.6%; viability, T/C (second compound 0.1 µM, first compound 0.316 µM): 91.1%; viability, T/C (second compound 0.1 µM, first compound 1 µM): 97.3%; viability, T/C (second compound 0.1 µM, first compound 3.16 µM): 98%; viability, T/C (second compound 0.1 µM, first compound 10 µM): 84.2%; viability, T/C (second compound 0.316 µM, first compound 0.0316 µM): 114%; viability, T/C (second compound 0.316 µM, first compound 0.1 µM): 99.3%; viability, T/C (second compound 0.316 µM, first compound 0.316 µM): 95.7%; viability, T/C (second compound 0.316 µM, first compound 1 µM): 100%; viability, T/C (second compound 0.316 µM, first compound 3.16 µM): 97.8%; viability, T/C (second compound 0.316 µM, first compound 10 µM): 105%; viability, T/C (second compound 1 µM, first compound 0.0316 µM): 101%; viability, T/C (second compound 1 µM, first compound 0.1 µM): 96.7%; viability, T/C (second compound 1 µM, first compound 0.316 µM): 105%; viability, T/C (second compound 1 µM, first compound 1 µM): 97.1%; viability, T/C (second compound 1 µM, first compound 3.16 µM): 90.6%; viability, T/C (second compound 1 µM, first compound 10 µM): 81.6%

Q: For `CNC(=O)c1ccc(N2C(=S)N(c3ccc(C#N)c(C(F)(F)F)c3)C(=O)C2(C)C)cc1F`, which viability, T/C (compound 0.0316 µM) is on record?
A: 100% [middle of 4 runs]

Q: And the viability, T/C (compound 0.1 µM)?
A: 102% [middle of 4 runs]

Q: What about the viability, T/C (compound 0.316 µM) of the same compound?
A: 100% [middle of 4 runs]

Q: And the viability, T/C (compound 1 µM)?
A: 93.9% and 100% and 102%

Q: And the viability, T/C (compound 3.16 µM)?
A: 101% [middle of 4 runs]

Q: And the viability, T/C (compound 10 µM)?
A: 104% [middle of 4 runs]

Q: What about the IC50 (curve of compound) of the same compound?
A: > 10 µM

From PubChem BioAssay AID1963978 (Molecular Pharmacology Branch, DTP, NCI, 2024)
